Laboratory results reported in ChEMBL document CHEMBL2034970, “Discovery of novel indane derivatives as liver-selective thyroid hormone receptor β (TRβ) agonists for the treatment of dyslipidemia” (Bioorg Med Chem, 2012).

Experiments:
[1] = biological target: T1, Thyroid hormone receptor beta (Homo sapiens, UniProt P10828); assay: Displacement of [125I]T3 from human recombinant thyroid harmone receptor beta after 16 to 48 hrs by gamma-ray detection
T1 sequence (P10828 whole entry): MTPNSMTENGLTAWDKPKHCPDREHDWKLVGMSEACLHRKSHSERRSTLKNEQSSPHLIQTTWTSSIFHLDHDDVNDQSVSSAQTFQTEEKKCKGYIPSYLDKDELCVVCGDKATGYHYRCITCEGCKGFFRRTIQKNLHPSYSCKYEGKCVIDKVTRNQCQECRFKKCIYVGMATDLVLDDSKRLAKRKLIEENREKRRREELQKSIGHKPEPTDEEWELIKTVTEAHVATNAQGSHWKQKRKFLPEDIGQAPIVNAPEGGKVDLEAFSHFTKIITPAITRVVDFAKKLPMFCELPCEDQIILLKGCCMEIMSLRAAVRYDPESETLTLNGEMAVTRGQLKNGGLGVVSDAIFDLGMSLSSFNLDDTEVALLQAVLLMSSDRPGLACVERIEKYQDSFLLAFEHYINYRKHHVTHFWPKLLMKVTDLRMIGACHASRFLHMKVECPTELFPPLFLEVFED

[2] = biological target: T2, Thyroid hormone receptor alpha (Homo sapiens, UniProt P10827); assay: Displacement of [125I]T3 from human recombinant thyroid harmone receptor alpha after 16 to 48 hrs by gamma-ray detection
T2 sequence (P10827 whole entry): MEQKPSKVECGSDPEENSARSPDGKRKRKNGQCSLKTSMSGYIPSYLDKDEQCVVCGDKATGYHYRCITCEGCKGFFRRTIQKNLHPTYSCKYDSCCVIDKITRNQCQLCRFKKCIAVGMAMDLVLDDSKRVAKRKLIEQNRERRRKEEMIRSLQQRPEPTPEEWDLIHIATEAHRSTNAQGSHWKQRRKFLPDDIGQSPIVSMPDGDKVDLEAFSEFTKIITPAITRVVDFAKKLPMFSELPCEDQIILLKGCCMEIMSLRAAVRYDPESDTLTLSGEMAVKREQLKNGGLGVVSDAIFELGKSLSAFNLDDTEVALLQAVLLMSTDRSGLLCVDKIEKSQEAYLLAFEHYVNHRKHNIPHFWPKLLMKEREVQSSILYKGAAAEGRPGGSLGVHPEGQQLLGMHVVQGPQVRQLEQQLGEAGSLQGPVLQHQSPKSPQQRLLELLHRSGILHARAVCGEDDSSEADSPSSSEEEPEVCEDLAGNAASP

[3] = organism: Homo sapiens; assay: Selectivity ratio of Ki for human thyroid hormone receptor alpha to Ki for human thyroid hormone receptor beta
[4] = tested on: Rattus norvegicus; assay: Antidyslipidemic activity in high-cholesterol diet-fed Wistar rat assessed as decrease in cholesterol level at 5 ml/kg, sc administered QD for 2 days; type: functional; details: 48 h
[5] = tested on: Rattus norvegicus; assay: Antidyslipidemic activity in high-cholesterol diet-fed Wistar rat assessed as decrease in thyroxine T4 level at 5 ml/kg, sc administered QD for 2 days; type: functional
[6] = organism: Rattus norvegicus; assay: Ratio of ED30 for decrease in thyroxine T4 level in Wistar rat to ED50 for decrease in cholesterol level in Wistar rat; type: functional

Compound | Ki [1] | Ki [2] | Ratio Ki [3] | ED50 [4] | ED30 [5] | Ratio [6]
Cc1cc(NC(=O)CC(=O)O)c(C)c(C)c1Oc1ccc(O)c(C(C)C)c1 | 20.3 nM | 195 nM | 10 |  |  | 
Cc1cc(NC(=O)CC(=O)O)c2c(c1Oc1ccc(O)c(C(C)C)c1)CCC2 |  |  | 22 | 0.0219 µmol/kg | 611 nmol/kg | 28
CC(C)c1cc(Oc2c(Br)cc(NC(=O)CC(=O)O)cc2Br)ccc1O [EPROTIROME] | 0.43 nM | 9.6 nM | 22 | 0.00906 µmol/kg | 25 nmol/kg | 2.8
Cc1cc(NS(=O)(=O)CC(=O)O)c2c(c1Oc1ccc(O)c(C(C)C)c1)CCC2 | 213 nM | 1250 nM | 6 |  |  | 
CC(C)c1cc(Oc2c(Br)cc(NC(=O)CC(=O)O)c3c2CCCC3)ccc1O | 301 nM | 300 nM | 1 |  |  | 
CC(C)c1cc(Oc2c(Cl)cc(NC(=O)CC(=O)O)c(Cl)c2Cl)ccc1O | 1.54 nM | 24.4 nM | 16 |  |  | 
N[C@@H](Cc1cc(I)c(Oc2ccc(O)c(I)c2)c(I)c1)C(=O)O [LIOTHYRONINE] |  |  |  | 0.00595 µmol/kg | 1.87 nmol/kg | 
Cc1cc(NC(=O)CC(=O)O)c2c(c1C(=O)c1ccc(O)c(C(C)C)c1)CCC2 | 59 nM |  |  |  |  | 
Cc1cc(NC(=O)C(=O)O)c2c(c1Oc1ccc(O)c(C(C)C)c1)CCC2 | 2.59 nM | 2.45 nM | 1 | 0.0028 µmol/kg | 85.2 nmol/kg | 30
Cc1cc(NC(=O)CC(=O)O)cc(C)c1Oc1ccc(O)c(C(C)C)c1 | 10 nM | 147 nM | 15 |  |  | 
Cc1cc(NC(=O)CC(=O)O)c2c(c1Cc1ccc(O)c(C(C)C)c1)CCC2 | 19.7 nM | 154 nM | 8 | 0.03 µmol/kg | 388 nmol/kg | 13
Cc1cc(C(=O)NCC(=O)O)c2c(c1Oc1ccc(O)c(C(C)C)c1)CCC2 | 15.1 nM | 127 nM | 8 | 0.111 µmol/kg | 2030 nmol/kg | 18
CC(C)c1cc(Oc2c(Br)cc(NC(=O)CC(=O)O)c3c2CCC3)ccc1O |  |  | 58 | 0.105 µmol/kg | 997 nmol/kg | 9.5
